The test system of data set [1] is SARS-CoV-2. The data set can be described thus: Antiviral activity against SARS-CoV-2 infected in African green monkey Vero E6 cells assessed as reduction in viral replication. The class given is functional, organism-based. As to conditions: Severe acute respiratory syndrome coronavirus 2, Vero C1008.
Data set [2] deals with SARS-CoV-2. The data set can be described thus: Antiviral activity against SARS-CoV-2 infected in human PSC-derived lung epithelial cells assessed as reduction in viral replication. The class given is functional, organism-based. As to conditions: Severe acute respiratory syndrome coronavirus 2, Epithelial cell.
Data set [3] is described as follows: Prodrug conversion in ferret lung assessed as triphosphate metabolite formation at 10 mg/kg, iv measured after 24 hrs. As to conditions: in vivo. Type of data set: ADME, organism-based, Mustela putorius furo.
In data set [4] the test system is SARS-CoV-2. Nature of the data set: Antiviral activity against SARS-CoV-2 infected in human Caco-2 cells assessed as reduction in viral replication at MOI of 0.01 measured after 72 hrs by qRT-PCR analysis. The class given is functional, organism-based. As to conditions: Severe acute respiratory syndrome coronavirus 2, Caco-2, 72 h. (In qPCR the cycle at which signal appears reflects the starting amount.)

Data set [5] is described as follows: Volume of distribution at steady state in ferret at 10 mg/kg, iv. The conditions noted are these: in vivo, read-out: Vdss. Type of data set: ADME, organism-based, Mustela putorius furo.
Data set [6] has as its system Middle East respiratory syndrome-related coronavirus. Nature of the data set: Potency index, ratio of EC50 of GS-441524 to EC50 of test compound for antiviral activity against MERS-CoV infected in HAE cells assessed as reduction in viral replication at MOI of 0.5 incubated for 3 hrs followed by virus removal measured after 48 hrs by Hoechst 33258 staining based assay. The class given is functional. The conditions noted are these: time 51 hrs.

A further data set has as its system Measles morbillivirus. Nature of the data set: Potency index, ratio of EC50 of GS-441524 to EC50 of test compound for antiviral activity against Measles Rec.rMVEZGFP(3) infected in human HeLa cells assessed as reduction in viral replication incubated for 48 to 144 hrs by fluorescence based assay. As to conditions: time 48-144 hrs. The class given is functional.

For data set [7], the system named is SARS-CoV-2. Nature of the data set: Potency index, ratio of EC50 of GS-441524 to EC50 of test compound for antiviral activity SARS-CoV-2 infected in human Calu-3 2B4 cells assessed as reduction in viral replication at MOI of 0.01 preincubated for 2 hrs followed by viral infection for 30 mins and subsequent virus removal and addition of medium containing compound measured after 72 hrs by RT-qPCR analysis. Type of data set: functional, Severe acute respiratory syndrome coronavirus 2. The conditions noted are these: time 74.5 hrs.

Data set [8] in a line: Half life in ferret at 10 mg/kg, iv. Type of data set: ADME, organism-based, Mustela putorius furo. As to conditions: in vivo.
Data set [9] has as its system SARS-CoV-2. Nature of the data set: Potency index, ratio of EC50 of GS-441524 to EC50 of test compound for antiviral activity against SARS-CoV-2 infected in human Huh-7 cells assessed as reduction in virus-induced cytopathic effect at MOI of 0.0037 measured after 4 days by MTS assay. Type of data set: functional, Severe acute respiratory syndrome coronavirus 2. The conditions noted are these: time 4 day.

Data set [10] can be described thus: AUC (0 to infinity) in ferret at 10 mg/kg, iv. The class given is ADME, organism-based, Mustela putorius furo. Also noted: time infinity, dose 10 mg/kg, route iv. As to conditions: in vivo.
The next data set concerns Ebolavirus. Nature of the data set: Potency index, ratio of EC50 of GS-441524 to EC50 of test compound for antiviral activity against Ebola infected in human HeLa cells assessed as reduction in viral replication. The class given is functional.
The test system of data set [11] is SARS-CoV-2. The data set can be described thus: Antiviral activity against SARS-CoV-2 infected in human Huh-7 cells assessed as reduction in virus-induced cytopathic effect at MOI of 0.0037 measured after 4 days by MTS assay. The class given is functional, organism-based. As to conditions: Severe acute respiratory syndrome coronavirus 2, Huh-7, 96 h. Background: Damage to the host cells serves as the signal in cytopathic effect assays.

In data set [12] the test system is SARS-CoV-2. The data set can be described thus: Potency index, ratio of EC50 of GS-441524 to EC50 of test compound for antiviral activity against SARS-CoV-2 infected in African green monkey Vero E6 cells assessed as reduction in viral replication. Type of data set: functional, Severe acute respiratory syndrome coronavirus 2.
Data set [13] relates to SARS-CoV-2. Nature of the data set: Potency index, ratio of EC50 of GS-441524 to EC50 of test compound for antiviral activity against SARS-CoV-2 infected in human PSC-derived lung epithelial cells assessed as reduction in viral replication. The class given is functional, Severe acute respiratory syndrome coronavirus 2, PSC-derived lung epithelial cell.

A value given as a limit tells only on which side of the number the result lay.

The term EC50 denotes the concentration giving half of the maximal effect. A word on the half-life: it is how long it takes for the measured level to halve. As a reminder, the AUC(0-inf) is total exposure, with the tail of the curve extrapolated.

As for `CCC(CC)OC(=O)[C@H](C)N[P@](=O)(OC[C@H]1O[C@@](C#N)(c2ccc3c(N)ncnn23)[C@H](O)[C@@H]1O)Oc1ccccc1`, the EC50 is 740 nM in the data set with SARS-CoV-2 [1], 140 nM in the data set with SARS-CoV-2 [2], 1 nM in the data set on SARS-CoV-2 [4] and under 1 nM in the data set with SARS-CoV-2 [11]. Also, the Drug metabolism in data set [3] is 1.28 nmol/g. The Vd in data set [5] stood at 0.34 L/kg. For the same compound, the Ratio in data set [6] is given as 12; with Measles morbillivirus, 27; with SARS-CoV-2 [7], 2.2; in the data set with SARS-CoV-2 [9], over 1000; in the data set on Ebolavirus, over 143; in the data set on SARS-CoV-2 [12] it was 0.7. In addition, in the data set with SARS-CoV-2 [13], the Ratio was 5.3. In addition, the half-life in [8] turned out to be 11 min. In [10], this compound gave an AUC(0-inf) of 7 µM·h.

The record behind these values is ChEMBL document CHEMBL5107958, “Phosphoramidate Prodrugs Continue to Deliver, The Journey of Remdesivir (GS-5734) from RSV to SARS-CoV-2” (ACS Med Chem Lett, 2022).
